What was measured:
ICR mice = assay: Intravenous maximal tolerated dose in mice; format: in vivo; settings: male ICR mice
Protocol: Blankophor® BA was prepared at various concentrations in 5% dextrose and filter sterilized by passage through a sterile 0.2 μm pore size cellulose acetate filter (Schleicher & Schuell, Dassel, Germany). Male albino ICR mice (weight 30 g) were injected through the tail vein with various doses of Blankophor® BA. Each dosage form was administered intravenously as single bolus injection of 0.1 ml of the same dose every 10 min to a group of 10 mice until death was observed. The survival of mice that received the maximal tolerated dose (MTD) was monitored for 8 days.

S. parasitica = assay: Tilapia-saprolegniosis established infection model; format: in vivo; settings: 50 and 100 mg/L on 3rd and 8th day
Protocol: Tilapia were exposed to S. parasitica and treated with Blankophor® BA (100, 50 and 25 mg/L), as described in Example 4, with the exception that Blankophor® BA treatment was started on the 3rd day after initiation of the infection, and repeated on the 8th day. By the starting point of the Blankophor® BA treatment, approximately 50% of the fish had established infection, as indicated by the presence of white skin lesions and a mortality rate of approximately 30%.

[1] = system: Chlorella, Microcystis, Peridinium, Melosira and Lake Kinneret samples; assay: 14C-carbon uptake study of photosynthetic activity; format: cell-based, phytoplankton; settings: 100 mg/L
Protocol: FIG. 6 illustrates the effect of exposure to Blankophor® BA (100 mg/L) (□) on photosynthetic activity in pure cultures of Chlorella (C), Microcystis (M), Peridinium (P) and Melosira (Me), and in samples from Lake Kinneret (LK), as determined by ^14C-uptake. Control, (▪).
Samples from Lake Kinneret and pure cultures of Peridinium sp. and Microcystis sp. were exposed to Blankophor® BA (100 mg/L), for a few minutes and the concentration of chlorophyll-a was determined (in duplicate) according to the excitation spectrum examined (range from 400 to 730 nm). In addition, the exposed and non-exposed samples were assessed for carbon uptake with a ^14C technique.

SMILES: O=S(=O)([O-])c1cc(Nc2nc(Nc3ccccc3)nc(N(CCO)CCO)n2)ccc1C=Cc1ccc(Nc2nc(Nc3ccccc3)nc(N(CCO)CCO)n2)cc1S(=O)(=O)[O-].[K+].[Na+] [Blankophor® BA]
- maximal tolerated dose (MTD) (ICR mice): > 1000 mg/kg
- efficacy in promoting survival of infected fish (S. parasitica): highly effective
- photosynthetic activity (14C-carbon uptake) [1]: did not decrease
